Patent publication US20100310685A1, “PUPICIDAL AND LARVICIDAL COMPOSITION” (priority 2008, published 2010)

Test system: pupae of Nematocera Diptera (for example mosquitoes)
Assay: specific research on pupicidal action
Conditions: in vivo

## CCCCCCCCCCCCCCCCO [cetyl alcohol, 1-hexadecanol]
  pupicidal action (kills pupae): excellent pupicide
